Consider 5 cell lines from the supplement of paper PMC10307832.

Common to all, as to experiment: relative viability (nuclei count vs DMSO), 5 days (fraction); higher = more cells survive
Compound in assay [1]: Cc1ccc(NC(=O)c2ccc(CN3CCN(C)CC3)cc2)cc1Nc1nccc(-c2cccnc2)n1 [Imatinib] + COc1cccc2cc(-c3nc([C@H]4CC[C@H](C(=O)O)CC4)n4ncnc(N)c34)[nH]c12 [OSI-027] (partner 0.5 µM)
An outline of the steps: (§1)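 For relative viability, nuclei counts in treated wells were divided by those in vehicle wells. Lung cancer cell lines had been pin-tool dosed in 1536-well plates the day after seeding and cultured for 5 days, then fixed and stained in one step (final 0.05% Triton X-100, 1% formaldehyde, 1 ug/ml Hoechst) and imaged at 4×. Doses were one drug alone or a fixed anchor-drug dose plus five library-drug doses (not always all listed) in √10 steps, and values are duplicate-plate medians.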

Compound in assay [2]: Cc1ccc(NC(=O)c2ccc(CN3CCN(C)CC3)cc2)cc1Nc1nccc(-c2cccnc2)n1 [Imatinib] + NC(=O)Nc1cc(-c2cccc(F)c2)sc1C(=O)N[C@H]1CCCNC1 [AZD7762] (partner 0.2 µM)
An outline of the steps:
as §1

Compound in assay [3]: Cc1ccc(NC(=O)c2ccc(CN3CCN(C)CC3)cc2)cc1Nc1nccc(-c2cccnc2)n1 [Imatinib] + Nc1ncn([C@H]2C[C@H](O)[C@@H](CO)O2)c(=O)n1 [Decitabine] (partner 2 µM)
Put shortly: as §1

Compound in assay [4]: Cc1ccc(NC(=O)c2ccc(CN3CCN(C)CC3)cc2)cc1Nc1nccc(-c2cccnc2)n1 [Imatinib] + O=C(c1cc(Cc2n[nH]c(=O)c3ccccc23)ccc1F)N1CCN(C(=O)C2CC2)CC1 [Olaparib] (partner 8 µM)
An outline of the steps:
as §1

For HOP-62, the relative viability in assay [1] (first compound 0.02 µM) is 0.999; in assay [1] (first compound 0.2 µM) it was 0.993; in assay [1] (first compound 0.6325 µM), 0.724; in assay [1] (first compound 2 µM), 0.781; in assay [2] (first compound 0.02 µM) it was 0.532; in assay [2] (first compound 0.2 µM), 0.707. For the same cell line, the relative viability in assay [2] (first compound 0.6325 µM) amounted to 0.504; in assay [2] (first compound 2 µM) it was 0.687; in assay [3] (first compound 0.02 µM), 0.199; in assay [3] (first compound 0.2 µM), 0.25; in assay [3] (first compound 0.6325 µM), 0.232; in assay [3] (first compound 2 µM), 0.211. The relative viability in assay [4] (first compound 0.02 µM) was found to be 0.408; in assay [4] (first compound 0.06325 µM), 0.478; in assay [4] (first compound 0.2 µM), 0.456; in assay [4] (first compound 0.6325 µM), 0.498; in assay [4] (first compound 2 µM) it was 0.372.
On to IA-LM, for which the relative viability turned out to be 0.917 in assay [4] (first compound 0.02 µM); 0.884 in assay [4] (first compound 0.06325 µM); 0.996 in assay [4] (first compound 0.2 µM); 0.977 in assay [4] (first compound 0.6325 µM); 0.734 in assay [4] (first compound 2 µM).
LC-2-ad: the relative viability in assay [1] (first compound 0.02 µM) was 0.788; in assay [1] (first compound 0.06325 µM) it was 0.623; in assay [1] (first compound 0.2 µM) it was 0.822; in assay [1] (first compound 0.6325 µM), 0.833; in assay [1] (first compound 2 µM), 0.929; in assay [2] (first compound 0.02 µM), 0.965. Moreover, the relative viability in assay [2] (first compound 0.2 µM) was determined as 0.76; in assay [2] (first compound 0.6325 µM), 0.772; in assay [2] (first compound 2 µM), 0.813; in assay [3] (first compound 0.02 µM) it was 0.816; in assay [3] (first compound 0.2 µM), 0.948; in assay [3] (first compound 0.6325 µM) it was 0.824. Moreover, the relative viability was found to be 0.759 in assay [3] (first compound 2 µM); 0.756 in assay [4] (first compound 0.02 µM); 0.751 in assay [4] (first compound 0.2 µM); 0.761 in assay [4] (first compound 0.6325 µM); 0.694 in assay [4] (first compound 2 µM).
Take LCLC-97TM1: the relative viability in assay [1] (first compound 0.02 µM) is 0.562; in assay [1] (first compound 0.2 µM), 0.577; in assay [1] (first compound 0.6325 µM), 0.542; in assay [1] (first compound 2 µM) it was 0.444; in assay [2] (first compound 0.02 µM), 0.28; in assay [2] (first compound 0.2 µM), 0.238. In addition, the relative viability in assay [2] (first compound 0.6325 µM) amounted to 0.258; in assay [2] (first compound 2 µM), 0.177; in assay [3] (first compound 0.02 µM), 0.208; in assay [3] (first compound 0.2 µM) it was 0.253; in assay [3] (first compound 0.6325 µM), 0.216; in assay [3] (first compound 2 µM) it was 0.226. Besides, the relative viability turned out to be 0.539 in assay [4] (first compound 0.02 µM), 0.269 in assay [4] (first compound 0.2 µM), 0.419 in assay [4] (first compound 0.6325 µM) and 0.33 in assay [4] (first compound 2 µM).
As to LCLC-103H, the relative viability turned out to be 0.453 in assay [1] (first compound 0.02 µM); 0.375 in assay [1] (first compound 0.06325 µM); 0.548 in assay [1] (first compound 0.2 µM); 0.415 in assay [1] (first compound 0.6325 µM); 0.433 in assay [1] (first compound 2 µM); 0.809 in assay [2] (first compound 0.02 µM). Further, the relative viability in assay [2] (first compound 0.06325 µM) stood at 0.779; in assay [2] (first compound 0.2 µM), 0.876; in assay [2] (first compound 0.6325 µM) it was 0.695; in assay [2] (first compound 2 µM) it was 0.781; in assay [3] (first compound 0.02 µM), 0.717; in assay [3] (first compound 0.06325 µM) it was 0.741. The relative viability in assay [3] (first compound 0.2 µM) was determined as 0.767; in assay [3] (first compound 0.6325 µM), 0.74; in assay [3] (first compound 2 µM) it was 0.754; in assay [4] (first compound 0.02 µM), 0.776; in assay [4] (first compound 0.06325 µM) it was 0.773; in assay [4] (first compound 0.2 µM), 0.834. The relative viability in assay [4] (first compound 0.6325 µM) worked out at 0.694.
